Entries after “also recorded” stand apart in the source; their conditions may differ.
Legend:
[1] = target: T1, enkephalinase (Mustela putorius furo, UniProt M3XUG8); assay: Enkephalinase activity of tissue membrane fractions: cleavage of (3H-Tyr1,DAla2,Leu5)enkephalin, inhibition by inhibitors and substrates; type: biochemical, ferret
T1 sequence (M3XUG8 2-749): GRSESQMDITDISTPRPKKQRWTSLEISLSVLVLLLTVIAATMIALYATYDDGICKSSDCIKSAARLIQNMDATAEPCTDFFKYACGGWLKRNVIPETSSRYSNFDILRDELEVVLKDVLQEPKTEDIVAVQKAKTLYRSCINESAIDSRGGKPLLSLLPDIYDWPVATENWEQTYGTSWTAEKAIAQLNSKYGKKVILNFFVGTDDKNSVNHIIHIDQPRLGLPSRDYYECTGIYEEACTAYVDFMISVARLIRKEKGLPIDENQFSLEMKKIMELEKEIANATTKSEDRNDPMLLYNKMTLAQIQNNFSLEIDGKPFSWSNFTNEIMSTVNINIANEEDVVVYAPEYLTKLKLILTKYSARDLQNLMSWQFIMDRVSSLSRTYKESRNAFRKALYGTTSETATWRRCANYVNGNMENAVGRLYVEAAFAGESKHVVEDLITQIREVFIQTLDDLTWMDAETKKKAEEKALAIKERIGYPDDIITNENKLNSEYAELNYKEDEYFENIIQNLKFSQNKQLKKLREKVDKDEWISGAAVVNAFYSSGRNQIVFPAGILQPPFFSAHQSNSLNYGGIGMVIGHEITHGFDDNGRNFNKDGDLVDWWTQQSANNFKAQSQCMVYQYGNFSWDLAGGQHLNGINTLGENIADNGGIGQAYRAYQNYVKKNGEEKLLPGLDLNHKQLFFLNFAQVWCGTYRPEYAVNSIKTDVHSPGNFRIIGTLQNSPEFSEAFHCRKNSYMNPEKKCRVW
Method: In this series of experiments, the tissue locations of enkephalinase were determined. Enkephalinase was purified from the ferret kidney to near homogeneity using published methods (Malfroy and Schwartz, Supra). Enkephalinase activity in membrane fractions derived from the vagus nerve, tracheal epithelium, submucosa, muscle, lungs, and kidneys of ferrets was determined. Ferrets were anesthetized, and the vagi, trachea, lungs, and kidneys removed. The tracheal epithelium, submucosa, and muscle were separated from each other by incubating the trachea in Ca⁺⁺-free medium for 15 minutes, after which time, the epithelium was easily removed. The muscle was then separated from the gland-containing submucosa. Each tissue was minced and then homogenized in 50mM HEPES buffer (pH 7.4) using a Polytron homogenizer.
Enkephalinase activity was measured by determining the rates of cleavage of (³H-Tyr¹, DAla², Leu⁵)enkephalin (Research Products International) by membrane fractions or purified enkephalinase. Fifty µl of membrane fraction was incubated for 40 minutes at room temperature with 50 µl of buffer containing (³H-Tyr¹, DAla²,Leu⁵)enkephalin (20nM), after which time the reaction was quenched by adding 50 µl of 2N HCl.
Seventy-five µl of this solution was applied to columns containing polystyrene beads (Poropak-Q); the characteristic metabolite, ³H-Tyr-DAla-Gly, eluted with water, and the radioactivity determined. The protein concentrations were determined by the Bradford procedure (Bradford, M.M. Analytical Biochem. 72:248-254 [1976]), and results of enkephalinase activities were expressed as fmoles substrate cleaved per min per mg protein.

[2] = system: ferret tracheal smooth muscle; assay: Isometric tension of isolated tracheal smooth muscle rings (contraction by peptides, effect of inhibitors); type: cell-based
Method: Twenty-seven ferrets were anesthetized with pentobarbital sodium (45-60 mg/kg, i.p.), and the trachea were removed. Transverse rings (8 mm long) were cut from the trachea and mounted in glass chambers filled with 14 ml of Krebs-Henseleit solution of the following composition (in mMoles/L): NaCl 118, KCl 5.9, CaCl₂ 2.5, MgSO₄ 1.2, NaH₂PO4 1.2, NaHCO₃ 25.5, glucose 5.6, 0.1% bovine serum albumin, and penicillin-streptomycin (100 Units/ml). The soluiton was maintained at 37°C and was aerated continuously in a mixture of 95% O₂-5% CO₂, which produced a pH of 7.4. Six tracheal rings were studied concurrently.
(§1) The tracheal rings were connected to strain gauges (Grass FT03) for continuous recording of isometric tension, and the rings were placed between two rectangular platinum electrodes (6 x 40 mm) for electrical field stimulation. The rings were initially stretched to a tension of 20 g for 30 seconds and were then allowed to equilibrate for 1 hour while resting tension was adjusted to 4 g (Skoogh, B-E. et al., J. Appl. Physiol. 53: 253-257 [1982]). During equilibration, the medium was changed every 15 minutes. […] Id.
The responsiveness to substance P (using concentrations ranging from 10⁻⁸ M to 10⁻⁵ M) and to leu-thiorphan and cumulative dose-response curves to substance P (Peninsula Labs) were obtained. Each succeeding concentration of substance P was added after contraction reached a plateau. After completion of the first dose-response curve to substance P, leu-thiorphan (10⁻⁵ M, Squibb Pharmaceutical) was added to the organ bath. Following a 15 minute incubation, a second dose-response curve to substance P was obtained.
The N-terminal fragment, substance P₁₋₉ was studied because enkephalinase cleaves substance P between the 9 and 10 positions (Matsas, R. et al., Proc. Natl. Acad. Sci. [USA] 80: 3111-3115 [1983]), generating that fragment. (10⁻⁵ M Peninsula Labs). Experiments were also carried out with (DPro², DTrp^7,9)-substance P (10⁻⁵ M) (Peninsula Labs), a substance P antagonist (Hakanson, R. et al., Br. J. Pharmac. 77: 697-700 [1982]) by adding the antagonist after the response to substance P (10⁻⁶ M) and leu-thiorphan (10⁻⁵ M) reached a plateau.
Data were expressed as mean ± SE. For the dose-response curves to substance P, the means between two groups at each concentration were compared by a paired t test. For the studies of electrical field stimulation, responses were compared by one way analysis of variance and Newman-Keuls multiple range test. Significance was accepted at P < 0.05. […]

[3] = system: ferret tracheal smooth muscle; assay: Electrical field stimulation-induced contraction of isolated tracheal smooth muscle; type: cell-based; details: 5 Hz; leu-thiorphan 10⁻⁵ M, 15 min
Method: as §1
Increasing concentrations of leu-thiorphan (10⁻¹¹ to 10⁻⁴ M) were added and the stimuli repeated to determine whether leu-thiorphan modulated electrical field stimulation-induced contractions. […] After determining control responses to electrical field stimulation (5 Hz), leu-thiorphan (10⁻⁵ M; 15 min) was added, the stimulus repeated, (DPro²,DTrp^7,9)substance P, the substance P antagonist (10⁻⁵ M; 15 min; Peninisula Labs) was added, and the stimulus was repeated.
Data were expressed as mean ± SE. For the dose-response curves to tachykinins the means between two groups at each concentration were analyzed by an unpaired t test. For the study of electrical field stimulation, responses were compared by one way analysis of variance and Newman-Keuls multiple range test. Significance was accepted at p<0.05.

[4] = system: longitudinal ileal smooth muscle; assay: Contraction of longitudinal ileal smooth muscle; type: cell-based, ferrets; details: inhibitor 10⁻⁵ M
From the text: Using methods similar to those with ferret airway smooth muscle, described in Example 7, longitudinal ileal smooth muscle was examined. […] Leu-thiorphan (10⁻⁵ M) shifted the dose response curve to lower concentrations by 1 log unit.

[5] = target: T2, purified rat kidney enkephalinase (Rattus norvegicus, UniProt P07861); type: biochemical; details: peptide 10⁻⁴M, 50 ng enzyme, 30 minutes at 37°C
T2 construct: purified rat kidney enkephalinase (50 ng in 150 ul 50 mM, pH7.4 HEPES buffer containing 0.02% Triton X-100); from tissue; host or cells: rat kidney
T2 sequence (P07861 1-750): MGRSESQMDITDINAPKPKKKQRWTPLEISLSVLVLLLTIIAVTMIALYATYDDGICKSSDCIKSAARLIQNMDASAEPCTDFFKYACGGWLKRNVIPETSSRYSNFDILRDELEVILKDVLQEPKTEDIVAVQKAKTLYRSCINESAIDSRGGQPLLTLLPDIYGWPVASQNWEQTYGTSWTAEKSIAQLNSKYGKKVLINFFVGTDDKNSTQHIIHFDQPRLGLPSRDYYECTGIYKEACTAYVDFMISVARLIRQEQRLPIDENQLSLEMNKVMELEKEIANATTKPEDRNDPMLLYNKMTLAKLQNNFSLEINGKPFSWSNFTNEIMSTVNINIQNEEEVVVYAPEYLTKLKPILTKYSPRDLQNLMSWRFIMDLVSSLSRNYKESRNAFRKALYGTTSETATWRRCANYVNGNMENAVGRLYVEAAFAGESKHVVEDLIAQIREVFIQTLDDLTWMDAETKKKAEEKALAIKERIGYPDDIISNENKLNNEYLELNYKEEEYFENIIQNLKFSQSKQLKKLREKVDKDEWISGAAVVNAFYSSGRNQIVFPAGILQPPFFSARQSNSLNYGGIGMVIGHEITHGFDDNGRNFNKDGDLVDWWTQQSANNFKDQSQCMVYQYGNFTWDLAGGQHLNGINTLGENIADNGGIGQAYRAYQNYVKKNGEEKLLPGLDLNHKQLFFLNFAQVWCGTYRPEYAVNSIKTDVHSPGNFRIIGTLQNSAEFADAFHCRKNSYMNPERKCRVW

Molecule | Ki ([1]; Epthelium membrane fraction) | Ki ([1]; Kidney) | Ki ([1]; Lung membrane fraction) | Ki ([1]; Muscle membrane fraction) | Ki ([1]; Submucosa membrane fraction) | Ki ([1]; Vagus/N. membrane fraction) | effect alone on resting tension ([2]; 10⁻⁵ M) | effect on resting tension ([2]; concentrations up to 10⁻⁴ M) | shift of the dose-response curve to neurokinin A to lower concentrations ([2]; inhibitor 10⁻⁵ M) | shift of the dose-response curve to neurokinin B to lower concentrations ([2]; inhibitor 10⁻⁵ M) | shift of the dose-response curve to substance P to lower concentrations ([2]; inhibitor 10⁻⁵ M) | response to electrical field stimulation, percent of control responses without added drugs [3] | shift of the dose response curve to substance P to lower concentrations [4] | fraction of the peptide degraded / hydrolyzed [5]
CC(C)C[C@H](NC(=O)C(CS)Cc1ccccc1)C(=O)O (some centres unmarked) [leu-thiorphan, Leucine-thiorphan] | 8.7 nM | 3.3 nM | 2.8 nM | 2.1 nM | 2.8 nM | 2.1 nM | no significant effect on resting tension | did not alter resting tension in any experiment | two-log units | three-log units | approximately one log unit; also recorded: approximately one-log unit | 118 ± 1.7% | 1 log unit | 
bombesin |  |  |  |  |  |  |  |  |  |  |  |  |  | 80%
